Like-named read-outs stand apart in the source and are kept apart here.

What all share (assay type): physicochemical
Series [1] in a line: Isolation in an inverting filter centrifuge, industrial scale (isolability). An excerpt:
In the context of the present invention and as outlined in WO2020/126983, improved isolability of the active compound product, dischargeability of the active compound product after isolation and drying and also conveyability, sieveability and micronizability of the active compound product of the compound of the formula (I) are to be understood as meaning the following, for example: Improved isolability is measurable on an industrial scale for example via a higher area-specific throughput in an inverting filter centrifuge (Example 16). In the context of the present invention the isolation of the active compound product is carried out using for example a filter centrifuge, for example an inverting filter centrifuge. […] This manifests for example in a higher area-specific throughput in the inverting filter centrifuge. On an industrial scale isolation of the material from the process of WO 2013/076168 achieved an average area-specific throughput of 1.6 kg/m^2 h. The average area-specific throughput of the material from the process of the invention was 3.0 kg/m^2 h and thus nearly double the above (Example 16). Higher area-specific throughput in an inverting filter centrifuge. Industrial scale.

A short description of series [2]: Sieving of active compound product on an industrial sieving machine (sieveability). To be noted: for Sieve throughput of active compound product: industrial scale, Frewitt Oscillowitt MG-800 (2.5 to 4.0 mm) for WO 2013/076168 material, Frewitt Coniwitt TC200 (3 mm) for material of the invention; for Time to sieve 65 kg of active compound product: Frewitt Coniwitt TC200, sieve aperture diameter 3 mm. The procedure:
Improved sieveability is measurable for example via improved feeding into the industrial sieving machine as a result of improved flowability of the active compound product and via fewer sieve blockages, for example via the throughput of active compound product per unit time (Example 17).
In the context of the present invention the sieving of the active compound product is carried out for example using a Frewitt Coniwitt TC200 sieving machine (sieve aperture diameter 3 mm) or a Frewitt Oscillowitt MG-800 sieving machine (sieve aperture diameter 2.5 mm to 4.0 mm).
Improved sieveability: The material from the process of the invention is easy to feed into the sieving machine on account of its good flowability. Sieving results in markedly fewer sieve blockages than for material from the process according to route 1. For example on an industrial scale 65 kg of the material from the process of the invention were sievable in <5 min in a Frewitt Coniwitt TC200 sieving machine (sieve aperture diameter 3 mm). This corresponds to >13 kg/min. For comparison sieving material from route 1 via a Frewitt Oscillowitt MG-800 sieving machine (sieve aperture diameter 2.5 mm to 4.0 mm) only achieved throughputs of <10 kg/h. This corresponds to <0.17 kg/min (Example 17). Observed here is a very large difference of a factor of nearly 100 in the sieve throughput of the active compound product of route 1 compared to the active compound product of the invention. This very large difference in sieve throughput results predominantly from the material characteristics of the active compound product and cannot be explained by the different machine types.
Improved sieve throughput. Industrial scale.

A short description of series [3]: Dischargeability from the inverting filter centrifuge, industrial scale. Conditions: listed as material from the process of the invention. The text has this: Improved dischargeability from the isolation apparatus: The process according to the process of the present invention prevents the formation of a felt-like filter cake having high tear strength. Both after isolation in the pressure filter and after isolation in the filter centrifugation the filter cake is soft and moldable. This prevents blockage of the discharge path. For example on an industrial scale a blockage of the discharge path from the inverting filter centrifuge after isolation of the material from the process of WO 2013/076168 was avoidable only by reducing the filter cake thickness to 8 mm to 9 mm. By contrast in the isolation of the material from the process of the invention an average filter cake height of 25 mm was realized without any blocking of the discharge path being observed.

[4] abbreviates: listed as material from the process of the invention.

In the case of `COC(=O)Nc1c(N)nc(-c2nn(Cc3ccccc3F)c3ncc(F)cc23)nc1N` [Process of WO 2013/076168, methyl {4,6-diamino-2-[5-fluoro-1-(2-fluorobenzyl)-1H-pyrazolo[3,4-b]pyridin-3-yl]pyrimidin-5-yl}carbamate, reference compound], the Average area-specific throughput in series [1] and in series [1] (listed as material from the process of WO 2013/076168) was 1.6 kg/m^2h in each case. The same compound yielded a Sieve throughput in series [2] (Frewitt Oscillowitt MG-800, sieve aperture diameter 2.5 mm to 4.0 mm) of less than 10 kg/h. Further, in series [2] (Frewitt Oscillowitt MG-800, sieve aperture diameter 2.5 to 4.0 mm, in 1 h), the “Amount of active compound product sieved in 1 h” value is <10 kg of active compound. Further, the “Sieve throughput of active compound product” value is reported as “i.e. <0.17 kg/min” in series [2] and less than 0.17 kg/min in series [2] (listed as material from route 1).

For `COC(=O)Nc1c(N)nc(-c2nn(Cc3ccccc3F)c3ncc(F)cc23)nc1N` [Process of the invention, methyl {4,6-diamino-2-[5-fluoro-1-(2-fluorobenzyl)-1H-pyrazolo[3,4-b]pyridin-3-yl]pyrimidin-5-yl}carbamate], the Average area-specific throughput in series [1] and in series [1] (setting [4]) was 3.0 kg/m^2h each time. In addition, the “Time to sieve 65 kg of active compound product” value in series [2] is on record as “product in <5 min”; in series [2] (setting [4]) it was less than 5 min. The “Sieve throughput of active compound product” value in series [2] is “i.e. >13 kg/min”; in series [2] (setting [4]), greater than 13 kg/min. Besides, the “Filter cake thickness at which the discharge path does not become blocked” value in series [3] is given as 25 mm.

Source of the values: patent US20230219952A1, “PROCESS FOR PREPARING METHYL {4,6-DIAMINO-2-[5-FLUORO-1-(2-FLUOROBENZYL)-1H-PYRAZOLO[3,4-B]PYRIDIN-3 -YL]PYRIMIDIN-5-YL} CARBAMATE” (ADVERIO PHARMA GMBH, priority 2020, published 2023).
